Columns and labels:
Format in all cases: biochemical
EGFR A763_Y764insFHEA = EGFR A763_Y764insFHEA (Homo sapiens, UniProt P00533, INS763FHEA); assay: Kinase activity assay (33P-ATP filter-binding) on EGFR exon 20 insertion mutant kinase A763_Y764insFHEA; details: for IC50: ATP at Km
Protocol: (§1) Screening of biological activity of compounds will be performed in duplicate at 10 concentrations.
(§2) Each sample was prepared as a solution with a concentration of 10 mM.
(§3) 1) Basic buffer solution and quench buffer solution for experimental kinases were prepared.
(§4) 2) Compounds for experimental kinases were prepared.
(§5) Compounds for test were dissolved to specific concentrations in 100% dimethyl sulfoxide. (Serial) dilutions were performed with Integra Viaflo Assist assisted DMSO.
(§6) The kinase was added to freshly prepared basic reaction buffer, and any desired cofactors were added to the above substrate solution.
(§7) The EGFR exon 20 insertion mutant kinase was added to the substrate solution and mixed gently; the compound in 100% dimethyl sulfoxide was fed into the kinase reaction mixture by using Acoustic technology (Echo550; nanoliter range) and incubated for 20 minutes at room temperature.
(§8) 33P-ATP (Specific activity 10 Ci/l) was added to the reaction mixture to start the reaction, incubated at room temperature for 2 hours, and the radioactivity was detected by the filter-binding method.
(§9) Kinase activity data are expressed as a percentage of remaining kinase activity in the test sample compared to the medium (dimethyl sulfoxide) reaction. IC50 values and curve fitting were obtained by using Prism ([sequence] software).

EGFR D770-N771insNPG = EGFR D770-N771insNPG (Homo sapiens, UniProt P00533, INS770NPG); assay: Kinase activity assay (33P-ATP filter-binding) on EGFR exon 20 insertion mutant kinase D770-N771insNPG; details: ATP at Km
Protocol: as §1, §2, §3, §4, §5, §6, §7, §8, §9

Her2 A775-G776insYVMA = Her2 A775-G776insYVMA (Homo sapiens, UniProt P04626, INS775YVMA); assay: Kinase activity assay (33P-ATP filter-binding) on Her2 exon 20 insertion mutant kinase A775-G776insYVMA; details: for IC50: ATP at Km
Chain of Her2 A775-G776insYVMA (P04626 with tags, fused parts or gaps INS775YVMA limits assumed): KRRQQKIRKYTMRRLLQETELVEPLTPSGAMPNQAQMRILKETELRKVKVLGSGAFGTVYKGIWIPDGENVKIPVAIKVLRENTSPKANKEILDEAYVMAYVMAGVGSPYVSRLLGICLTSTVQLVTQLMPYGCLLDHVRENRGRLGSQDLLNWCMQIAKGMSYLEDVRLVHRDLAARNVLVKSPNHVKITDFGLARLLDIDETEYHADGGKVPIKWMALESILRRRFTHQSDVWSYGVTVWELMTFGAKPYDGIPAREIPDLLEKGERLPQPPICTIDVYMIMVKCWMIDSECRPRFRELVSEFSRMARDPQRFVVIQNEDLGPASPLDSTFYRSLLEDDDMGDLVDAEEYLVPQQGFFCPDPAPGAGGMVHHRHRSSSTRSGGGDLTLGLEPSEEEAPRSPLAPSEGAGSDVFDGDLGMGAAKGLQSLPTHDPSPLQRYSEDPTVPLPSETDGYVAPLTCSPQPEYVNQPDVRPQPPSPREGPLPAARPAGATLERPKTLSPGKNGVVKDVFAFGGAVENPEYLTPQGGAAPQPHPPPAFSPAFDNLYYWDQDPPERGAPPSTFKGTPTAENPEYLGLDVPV
Protocol: as §1, §2, §3, §4, §5, §6, §7, §8, §9

SMILES	IC50 (EGFR A763_Y764insFHEA) [nM]	IC50 (EGFR A763_Y764insFHEA; class symbols) [nM]	IC50 (EGFR D770-N771insNPG) [nM]	IC50 (EGFR D770-N771insNPG; class symbols) [nM]	activity relative to that of poziotinib (EGFR A763_Y764insFHEA; EGFR exon 20 insertion mutant kinase, mutant not specified)	IC50 (Her2 A775-G776insYVMA) [nM]	IC50 (Her2 A775-G776insYVMA; class symbols) [nM]	inhibitory activity on Her2 insertion mutant kinase relative to that of poziotinib (Her2 A775-G776insYVMA)
C=CC(=O)N1CC2CN(c3cc4c(Nc5ccc(Cl)c(Cl)c5F)ncnc4cc3OC)CC2C1 (stereo not drawn) [Example 1]	6.68	4 to 40	1.61	< 4				
COc1cc2ncnc(Nc3ccc(Cl)c(Cl)c3F)c2cc1N1CCCC1 [Example 2]	3.03	< 4	1.65	< 4				
C=CC(=O)N1CC(C(F)(F)c2cc3c(Nc4ccc(Cl)c(Cl)c4F)ncnc3cc2OC)C1 [Example 3]	1.32	< 4	0.513	< 4	2-3 times	2.61	< 4	
C=CC(=O)N1CC(C(=O)c2cc3c(Nc4ccc(Cl)c(Cl)c4F)ncnc3cc2OC)C1 [Example 4]	11.8	4 to 40	3.04	< 4				
C=CC(=O)N1CCC(C(F)(F)c2cc3c(Nc4ccc(Cl)c(Cl)c4F)ncnc3cc2OC)CC1 [Example 5]	2.19	< 4	1.54	< 4		1.02	< 4	about 4 times
C=CC(=O)N1CCC(C(=O)c2cc3c(Nc4ccc(Cl)c(Cl)c4F)ncnc3cc2OC)CC1 [Example 6]	16.2	4 to 40	4.51	4 to 40				
C=CC(=O)N1CC2CC(Oc3cc4c(Nc5ccc(Cl)c(Cl)c5F)ncnc4cc3OC)CC2C1 (stereo not drawn) [Example 7]	4.04	4 to 40	0.833	< 4		1.84	< 4	
C=CC(=O)N1C2CC(Sc3cc4c(Nc5ccc(Cl)c(Cl)c5F)ncnc4cc3OC)CC1C2 (stereo not drawn) [Example 8]		4 to 40		4 to 40				
C=CC(=O)N1CC2CC1CC2C(=O)c1cc2c(Nc3ccc(Cl)c(Cl)c3F)ncnc2cc1OC (stereo not drawn) [Example 9]		4 to 40		4 to 40			4 to 40	
C=CC(=O)N1CC2C(C1)C2Oc1cc2c(Nc3ccc(Cl)c(Cl)c3F)ncnc2cc1OC (stereo not drawn) [Example 10]		< 4		< 4				
C=CC(=O)N1C2CCC1CC(C(=O)c1cc3c(Nc4ccc(Cl)c(Cl)c4F)ncnc3cc1OC)C2 (stereo not drawn) [Example 11]		4 to 40		4 to 40			4 to 40	
C=CC(=O)N1CC2(CC(Oc3cc4c(Nc5ccc(Cl)c(Cl)c5F)ncnc4cc3OC)C2)C1 [Example 13]		4 to 40		< 4			< 4	
C=CC(=O)N1C[C@H]2C[C@H](Oc3cc4c(Nc5ccc(Cl)c(Cl)c5F)ncnc4cc3OCCOC)C[C@H]2C1 [Example 16]		< 4		< 4			< 4	
C=CC(=O)N1C[C@H]2C[C@H](Oc3cc4c(Nc5ccc(Cl)c(Cl)c5F)ncnc4cc3OCCCN3CCOCC3)C[C@H]2C1 [Example 17]		4 to 40		< 4			< 4	
C=CC(=O)N1CCC(Oc2cc3c(Nc4ccc(Cl)c(Cl)c4F)ncnc3cc2OC)CC1 [Poziotinib, reference compound]						4.79	4 to 40	
